Source: patent publication US20230073777A1, “CYCLIC-AMP RESPONSE ELEMENT BINDING PROTEIN (CBP) AND/OR ADENOVIRAL E1A BINDING PROTEIN OF 300 KDA (P300) DEGRADATION COMPOUNDS AND METHODS OF USE” (CULLGEN (SHANGHAI), INC., priority 2019, published 2023)
Where two headings read alike, the source gives them in different places.

Assays:
LNCaP cells = experiment: LNCaP cell viability assay (CellTiter-Glo); assay type: cell-based; conditions: Homo sapiens, 72 h, LNCaP prostate cancer cell viability inhibition, 3 days
Protocol: LNCaP cells seeded in 96-well plates were treated with 10 μM GNE-781 or selected bivalent compounds, i.e. P-001, P-002, and P-019, following a 12-point 3-fold serial dilution. Three days after treatment, cell viability was determined using the CellTiter-Glo kit (Promega) following manufacturer's instructions. Cell viability was normalized to the mean values of 3 replicates of untreated cells. Dose-dependent response was analyzed following the least-squares non-linear regression method using the GraphPad Prism 5.0 software.
LNCaP cells were treated with GNE-781 or selected bivalent compounds for 3 days at indicated concentrations following a 3-fold serial dilution.
Cells were seeded at a density of 5000 cells per well in 96-well assay plates and treated with test compounds following a 12-point 3-fold serial dilution. Three days later, cell viability was determined using the CellTiter-Glo assay kit according to the manufacturer's instructions. The dose-response curves were determined and IC50 values were calculated using the GraphPad Prism software following a nonlinear regression (least squares fit) method.

P300 = P300 (Homo sapiens, UniProt Q09472); experiment: Immunoblotting of P300 protein levels in LNCaP or 22RV1 cells; assay type: cell-based; design: LNCaP or 22RV1 cells that express CBP/P300 proteins were treated with GNE-781 or the bivalent compounds; endogenous in cells; host or cells: LNCaP (clone FGC) or 22RV1 cells; conditions: read-out: Degradation (10 nM)
Chain of P300 (Q09472 whole entry): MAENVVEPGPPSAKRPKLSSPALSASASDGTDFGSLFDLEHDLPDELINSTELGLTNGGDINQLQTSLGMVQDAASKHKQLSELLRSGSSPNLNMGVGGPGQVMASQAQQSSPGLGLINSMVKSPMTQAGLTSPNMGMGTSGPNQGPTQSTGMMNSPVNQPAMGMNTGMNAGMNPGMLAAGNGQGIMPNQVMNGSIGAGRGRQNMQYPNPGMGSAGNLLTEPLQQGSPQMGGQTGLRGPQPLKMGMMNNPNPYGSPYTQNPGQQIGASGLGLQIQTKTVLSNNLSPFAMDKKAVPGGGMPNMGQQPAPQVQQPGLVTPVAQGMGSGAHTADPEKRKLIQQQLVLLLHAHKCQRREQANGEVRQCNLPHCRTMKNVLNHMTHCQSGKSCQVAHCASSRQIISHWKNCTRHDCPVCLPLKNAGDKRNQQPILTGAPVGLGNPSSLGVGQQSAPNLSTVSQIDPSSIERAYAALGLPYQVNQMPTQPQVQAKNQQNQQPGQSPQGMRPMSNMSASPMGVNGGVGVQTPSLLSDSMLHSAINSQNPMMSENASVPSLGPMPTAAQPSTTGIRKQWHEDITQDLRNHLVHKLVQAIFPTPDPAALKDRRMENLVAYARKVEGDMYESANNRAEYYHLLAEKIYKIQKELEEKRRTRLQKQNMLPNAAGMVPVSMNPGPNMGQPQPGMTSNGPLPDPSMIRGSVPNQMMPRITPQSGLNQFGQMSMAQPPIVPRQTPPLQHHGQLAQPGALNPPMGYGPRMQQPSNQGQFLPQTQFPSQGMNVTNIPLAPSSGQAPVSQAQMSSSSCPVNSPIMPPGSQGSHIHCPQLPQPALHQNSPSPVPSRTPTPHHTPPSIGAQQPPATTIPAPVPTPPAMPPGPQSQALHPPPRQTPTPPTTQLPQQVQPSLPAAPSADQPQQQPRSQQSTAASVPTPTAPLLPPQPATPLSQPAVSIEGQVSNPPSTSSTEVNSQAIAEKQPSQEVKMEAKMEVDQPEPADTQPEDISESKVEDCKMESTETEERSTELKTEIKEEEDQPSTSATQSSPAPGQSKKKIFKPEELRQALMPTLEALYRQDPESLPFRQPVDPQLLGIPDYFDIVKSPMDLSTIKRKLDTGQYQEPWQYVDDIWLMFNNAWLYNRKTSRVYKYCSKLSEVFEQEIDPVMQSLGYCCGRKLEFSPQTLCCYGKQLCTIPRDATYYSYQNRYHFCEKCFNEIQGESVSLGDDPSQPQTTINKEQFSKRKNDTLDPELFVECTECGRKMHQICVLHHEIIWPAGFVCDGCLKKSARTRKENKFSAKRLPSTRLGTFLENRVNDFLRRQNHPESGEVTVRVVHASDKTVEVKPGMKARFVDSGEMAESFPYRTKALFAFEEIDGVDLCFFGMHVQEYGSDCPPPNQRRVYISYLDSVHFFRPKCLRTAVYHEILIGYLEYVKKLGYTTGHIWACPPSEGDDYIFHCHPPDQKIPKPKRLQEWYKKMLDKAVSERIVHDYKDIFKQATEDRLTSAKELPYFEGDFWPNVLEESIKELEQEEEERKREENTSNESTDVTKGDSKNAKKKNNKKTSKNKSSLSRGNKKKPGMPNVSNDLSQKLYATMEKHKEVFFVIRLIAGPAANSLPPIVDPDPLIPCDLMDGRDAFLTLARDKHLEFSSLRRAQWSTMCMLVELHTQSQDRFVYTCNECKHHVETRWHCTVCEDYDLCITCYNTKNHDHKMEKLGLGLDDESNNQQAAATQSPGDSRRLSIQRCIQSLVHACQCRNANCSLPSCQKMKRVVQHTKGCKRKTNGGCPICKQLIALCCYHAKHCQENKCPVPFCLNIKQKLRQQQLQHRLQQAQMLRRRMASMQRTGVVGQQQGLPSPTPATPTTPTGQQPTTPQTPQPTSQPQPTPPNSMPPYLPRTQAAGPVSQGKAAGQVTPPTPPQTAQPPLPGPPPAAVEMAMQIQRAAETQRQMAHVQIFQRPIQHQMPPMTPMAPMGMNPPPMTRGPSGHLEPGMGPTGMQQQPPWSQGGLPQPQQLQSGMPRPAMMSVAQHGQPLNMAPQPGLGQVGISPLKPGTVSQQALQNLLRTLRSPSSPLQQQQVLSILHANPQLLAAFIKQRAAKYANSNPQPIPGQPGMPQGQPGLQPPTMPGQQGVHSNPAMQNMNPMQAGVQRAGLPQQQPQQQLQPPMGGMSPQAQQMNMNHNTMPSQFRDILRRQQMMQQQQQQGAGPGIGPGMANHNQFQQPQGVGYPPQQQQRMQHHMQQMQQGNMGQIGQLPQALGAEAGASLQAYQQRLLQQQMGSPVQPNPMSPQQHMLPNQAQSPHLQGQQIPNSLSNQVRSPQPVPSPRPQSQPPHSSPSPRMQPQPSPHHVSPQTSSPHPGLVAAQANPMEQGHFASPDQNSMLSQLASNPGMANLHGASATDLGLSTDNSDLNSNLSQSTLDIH
Protocol: Specific exemplary bivalent compounds were characterized in LNCaP or 22RV1 cells. LNCaP or 22RV1 cells that express CBP/P300 proteins were treated with GNE-781 or the bivalent compounds disclosed herein (P-001 to P-174) for indicated hours. Cells were collected, lysed and subject to immunoblotting using an antibody specific to P300 or CBP proteins. Tubulin or vinculin was included as the loading control. DMSO was used as the negative control.
Cultured cells or tissue chunks were washed with cold PBS once and lysed in cold RIPA buffer supplemented with protease inhibitors and phosphatase inhibitors (Beyotime Biotechnology). The solutions were then incubated at 4° C. for 30 minutes with gentle agitation to fully lyse cells. Cell lysates were centrifuged at 13,000 rpm for 10 minutes at 4° C. and pellets were discarded. Total protein concentrations in the lysates were determined by BCA assays (Beyotime Biotechnology). Cell lysates were mixed with Laemmli loading buffer to 1× and heated at 99° C. for 5 min. Proteins were resolved on SDS-PAGE and visualized by chemiluminescence. Images were taken by a ChemiDoc MP Imaging system (Bio-Rad). Protein bands were quantitated using the accompanied software provided by Bio-Rad.

[1] = percentage of inhibition of p300 at 10 nM (Table 3)
[2] = percentage of inhibition of p300 at 10 nM (Table 2)

| Structure (SMILES) | IC50 (LNCaP cells; CellTiter-Glo (Table 3)) [µM] | inhibition at 0.01 µM (P300; [1]) [%] | further results |
| --- | --- | --- | --- |
| CNC(=O)N1CCc2c(c(N3CCCc4cc(-c5cnn(C)c5)c(C(F)F)cc43)nn2C2CCN(C(=O)CCOCCOCCNc3cccc4c3C(=O)N(C3CCC(=O)NC3=O)C4=O)CC2)C1 (centres unmarked) [P-052, 3-(7-(Difluoromethyl)-6-(1-methyl-1H-pyrazol-4-yl)-3,4-dihydroquinolin-1(2H)-yl)-1-(1-(3-(2-(2-((2-(2,6-dioxopiperidin-3-yl)-1,3-dioxoisoindolin-4-yl)amino)ethoxy)ethoxy)propanoyl)piperidin-4-yl)-N-methyl-1,4,6,7-tetrahydro-5H-pyrazolo[4,3-c]pyridine-5-carboxamide] | 0.105 | < 20 |  |
| CNC(=O)N1CCc2c(c(N3CCCc4cc(-c5cnn(CC(=O)NCCCCCCNc6ccc7c(c6)C(=O)N(C6CCC(=O)NC6=O)C7=O)c5)c(C(F)F)cc43)nn2C2CCOCC2)C1 (centres unmarked) [P-020] |  |  | IC50 (LNCaP cells; CellTiter-Glo (Table 2)): 0.0033 µM; inhibition at 0.01 µM (P300; [2]): > 80% |
| CNC(=O)N1CCc2c(c(N3CCCc4cc(-c5cnn(CC(=O)NCCOCC(=O)N[C@H](C(=O)N6C[C@H](O)C[C@H]6C(=O)NCc6ccc(-c7scnc7C)cc6)C(C)(C)C)c5)c(C(F)F)cc43)nn2C2CCOCC2)C1 [P-073, 3-(7-(Difluoromethyl)-6-(1-(2-((2-(2-(((S)-1-((2S,4R)-4-hydroxy-2-((4-(4-methylthiazol-5-yl)benzyl)carbamoyl)pyrrolidin-1-yl)-3,3-dimethyl-1-oxobutan-2-yl)amino)-2-oxoethoxy)ethyl)amino)-2-oxoethyl)-1H-pyrazol-4-yl)-3,4-dihydroquinolin-1(2H)-yl)-N-methyl-1-(tetrahydro-2H-pyran-4-yl)-1,4,6,7-tetrahydro-5H-pyrazolo[4,3-c]pyridine-5-carboxamide] | > 10 | < 20 |  |
| CC(=O)N1CCc2c(c(N3CCCc4cc(-c5cnn(C)c5)c(C(F)F)cc43)nn2C2CCN(CCN3CCC(COc4cccc5c4C(=O)N(C4CCC(=O)NC4=O)C5=O)CC3)CC2)C1 (centres unmarked) [P-167, 4-((1-(2-(4-(5-Acetyl-3-(7-(difluoromethyl)-6-(1-methyl-1H-pyrazol-4-yl)-3,4-dihydroquinolin-1(2H)-yl)-4,5,6,7-tetrahydro-1H-pyrazolo[4,3-c]pyridin-1-yl)piperidin-1-yl)ethyl)piperidin-4-yl)methoxy)-2-(2,6-dioxopiperidin-3-yl)isoindoline-1,3-dione] | 0.092 |  | inhibition at 0.01 µM (P300): < 20% |
| CNC(=O)N1CCc2c(c(N3CCCc4cc(-c5cnn(C)c5)c(C(F)F)cc43)nn2C2CCN(C(=O)CCCCNc3ccc4c(c3)n(C)c(=O)n4C3CCC(=O)NC3=O)CC2)C1 (centres unmarked) [P-125, 3-(7-(Difluoromethyl)-6-(1-methyl-1H-pyrazol-4-yl)-3,4-dihydroquinolin-1(2H)-yl)-1-(1-(5-((1-(2,6-dioxopiperidin-3-yl)-3-methyl-2-oxo-2,3-dihydro-1H-benzo[d]imidazol-5-yl)amino)pentanoyl)piperidin-4-yl)-N-methyl-1,4,6,7-tetrahydro-5H-pyrazolo[4,3-c]pyridine-5-carboxamide] | 0.0421 | > 80 |  |
| CC(=O)N1CCc2c(c(N3CCCc4cc(-c5cnn(C)c5)c(C(F)F)cc43)nn2C2CCN(CCCCCCOc3cccc4c3C(=O)N(C3CCC(=O)NC3=O)C4=O)CC2)C1 (centres unmarked) [P-113, 4-((6-(4-(5-acetyl-3-(7-(difluoromethyl)-6-(1-methyl-1H-pyrazol-4-yl)-3,4-dihydroquinolin-1(2H)-yl)-4,5,6,7-tetrahydro-1H-pyrazolo[4,3-c]pyridin-1-yl)piperidin-1-yl)hexyl)oxy)-2-(2,6-dioxopiperidin-3-yl)isoindoline-1,3-dione] | 0.0148 | > 80 |  |
| CNC(=O)N1CCc2c(c(N3CCCc4cc(-c5cnn(CC(=O)NCCCCCCCCNc6ccc7c(c6)C(=O)N(C6CCC(=O)NC6=O)C7=O)c5)c(C(F)F)cc43)nn2C2CCOCC2)C1 (centres unmarked) [P-027, 3-(7-(difluoromethyl)-6-(1-(2-((8-((2-(2,6-dioxopiperidin-3-yl)-1,3-dioxoisoindolin-5-yl)amino)octyl)amino)-2-oxoethyl)-1H-pyrazol-4-yl)-3,4-dihydroquinolin-1(2H)-yl)-N-methyl-1-(tetrahydro-2H-pyran-4-yl)-1,4,6,7-tetrahydro-5H-pyrazolo[4,3-c]pyridine-5-carboxamide] |  |  | IC50 (LNCaP cells; CellTiter-Glo (Table 2)): 0.0025 µM; inhibition at 0.01 µM (P300; [2]): > 80% |
| CNC(=O)N1CCc2c(c(N3CCCc4cc(-c5cnn(CC(=O)NCCCC(=O)N[C@H](C(=O)N6C[C@H](O)C[C@H]6C(=O)NCc6ccc(-c7scnc7C)cc6)C(C)(C)C)c5)c(C(F)F)cc43)nn2C2CCOCC2)C1 [P-079, 3-(7-(Difluoromethyl)-6-(1-(2-((4-(((S)-1-((2S,4R)-4-hydroxy-2-((4-(4-methylthiazol-5-yl)benzyl)carbamoyl)pyrrolidin-1-yl)-3,3-dimethyl-1-oxobutan-2-yl)amino)-4-oxobutyl)amino)-2-oxoethyl)-1H-pyrazol-4-yl)-3,4-dihydroquinolin-1(2H)-yl)-N-methyl-1-(tetrahydro-2H-pyran-4-yl)-1,4,6,7-tetrahydro-5H-pyrazolo[4,3-c]pyridine-5-carboxamide] | > 10 | < 20 |  |
| CNC(=O)N1CCc2c(c(N3CCCc4cc(-c5cnn(CC(=O)NCCOCCOCC(=O)N[C@H](C(=O)N6C[C@H](O)CC6C(=O)NCc6ccc(-c7scnc7C)cc6)C(C)(C)C)c5)c(C(F)F)cc43)nn2C2CCOCC2)C1 (stereo in doubt) [P-083, 3-(7-(Difluoromethyl)-6-(1-((S)-13-((2S,4R)-4-hydroxy-2-((4-(4-methylthiazol-5-yl)benzyl)carbamoyl)pyrrolidine-1-carbonyl)-14,14-dimethyl-2,11-dioxo-6,9-dioxa-3,12-diazapentadecyl)-1H-pyrazol-4-yl)-3,4-dihydroquinolin-1(2H)-yl)-N-methyl-1-(tetrahydro-2H-pyran-4-yl)-1,4,6,7-tetrahydro-5H-pyrazolo[4,3-c]pyridine-5-carboxamide] | > 10 |  |  |
| CC(=O)N1CCc2c(c(N3CCCc4cc(-c5cnn(C)c5)c(C(F)F)cc43)nn2C2CCN(C3CN(CCCOc4cccc5c4C(=O)N(C4CCC(=O)NC4=O)C5=O)C3)CC2)C1 (centres unmarked) [P-140, 4-(3-(3-(4-(5-Acetyl-3-(7-(difluoromethyl)-6-(1-methyl-1H-pyrazol-4-yl)-3,4-dihydroquinolin-1(2H)-yl)-4,5,6,7-tetrahydro-1H-pyrazolo[4,3-c]pyridin-1-yl)piperidin-1-yl)azetidin-1-yl)propoxy)-2-(2,6-dioxopiperidin-3-yl)isoindoline-1,3-dione] | > 0.5 |  |  |
| CC(=O)N1CCc2c(c(N3CCCc4cc(-c5cnn(C)c5)c(C(F)F)cc43)nn2C2CCN(CCN3CCN(Cc4cccc5c4C(=O)N(C4CCC(=O)NC4=O)C5=O)CC3)CC2)C1 (centres unmarked) [P-145, 4-((4-(2-(4-(5-Acetyl-3-(7-(difluoromethyl)-6-(1-methyl-1H-pyrazol-4-yl)-3,4-dihydroquinolin-1(2H)-yl)-4,5,6,7-tetrahydro-1H-pyrazolo[4,3-c]pyridin-1-yl)piperidin-1-yl)ethyl)piperazin-1-yl)methyl)-2-(2,6-dioxopiperidin-3-yl)isoindoline-1,3-dione] | > 1 |  |  |
| CNC(=O)N1CCc2c(c(N3CCCc4cc(-c5cnn(CC(=O)NCCOCCC(=O)N[C@H](C(=O)N6C[C@H](O)CC6C(=O)NCc6ccc(-c7scnc7C)cc6)C(C)(C)C)c5)c(C(F)F)cc43)nn2C2CCOCC2)C1 (stereo in doubt) [P-074, 3-(7-(Difluoromethyl)-6-(1-(2-((2-(3-(((S)-1-((2S,4R)-4-hydroxy-2-((4-(4-methylthiazol-5-yl)benzyl)carbamoyl)pyrrolidin-1-yl)-3,3-dimethyl-1-oxobutan-2-yl)amino)-3-oxopropoxy)ethyl)amino)-2-oxoethyl)-1H-pyrazol-4-yl)-3,4-dihydroquinolin-1(2H)-yl)-N-methyl-1-(tetrahydro-2H-pyran-4-yl)-1,4,6,7-tetrahydro-5H-pyrazolo[4,3-c]pyridine-5-carboxamide] | > 10 |  |  |
